The subject of this assay is L1210 leukemia ip in BDF1 mice, survival T/C. Kind of assay: NCI In Vivo Anticancer Drug Screen. Data for tumor model L1210 Leukemia (intraperitoneal) in B6D2F1 (BDF1) mice. The note with it: endpoint: mean survival time, higher = longer survival. The procedure, abridged:
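Ratio derived from survival: compound-dosed mice over vehicle-dosed mice, all bearing a transplantable tumor.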

Setting [1] is: dose: 100.0 mg/kg/injection, schedule: Q04DX002 (ip), vehicle: Klucel (hydroxypropylcellulose) (HPC).
Where [2] appears, read: dose: 200.0 mg/kg/injection, schedule: Q04DX002 (ip), vehicle: Klucel (hydroxypropylcellulose) (HPC).
[3] abbreviates: dose: 100.0 mg/kg/injection, schedule: Q01DX009 (ip), vehicle: saline with Tween-80.
[4] abbreviates: dose: 100.0 mg/kg/injection, schedule: Q04DX003 (ip), vehicle: saline with Tween-80.
Where [5] appears, read: dose: 200.0 mg/kg/injection, schedule: Q01DX009 (ip), vehicle: saline with Tween-80.
Where [6] appears, read: dose: 200.0 mg/kg/injection, schedule: Q04DX003 (ip), vehicle: saline with Tween-80.
The mark [7] stands for this setting: dose: 400.0 mg/kg/injection, schedule: Q04DX003 (ip), vehicle: saline with Tween-80.
The mark [8] stands for this setting: dose: 100.0 mg/kg/injection, schedule: Q04DX003 (ip), vehicle: Klucel (hydroxypropylcellulose) (HPC).
Where [9] appears, read: dose: 400.0 mg/kg/injection, schedule: Q01DX009 (ip), vehicle: saline with Tween-80.
Setting [10] is: dose: 100.0 mg/kg/injection, schedule: Q01DX009 (ip), vehicle: Klucel (hydroxypropylcellulose) (HPC).
The mark [11] stands for this setting: dose: 200.0 mg/kg/injection, schedule: Q01DX009 (ip), vehicle: Klucel (hydroxypropylcellulose) (HPC).
Setting [12] is: dose: 400.0 mg/kg/injection, schedule: Q01DX009 (ip), vehicle: Klucel (hydroxypropylcellulose) (HPC).
Setting [13] is: dose: 400.0 mg/kg/injection, schedule: Q04DX002 (ip), vehicle: Klucel (hydroxypropylcellulose) (HPC).
The mark [14] stands for this setting: dose: 200.0 mg/kg/injection, schedule: Q04DX003 (ip), vehicle: Klucel (hydroxypropylcellulose) (HPC).
The mark [15] stands for this setting: dose: 400.0 mg/kg/injection, schedule: Q04DX003 (ip), vehicle: Klucel (hydroxypropylcellulose) (HPC).
The mark [16] stands for this setting: dose: 100.0 mg/kg/injection, schedule: Q01DX001 (ip), vehicle: saline.
The mark [17] stands for this setting: dose: 200.0 mg/kg/injection, schedule: Q01DX001 (ip), vehicle: saline.

Several values for one entry are separate records, joined by “and”; a condition that tells them apart may be missing. Equal entries are not always repeated. Toxic doses and inconclusive results are not listed.

As for `CCCn1cnc2c(=S)nc[nH]c21`, the T/C by setting is: (dose: 12.5 mg/kg/injection, schedule: Q01DX Z (ip), vehicle: carboxymethylcellulose (CMC)) 108 % of control; (dose: 25.0 mg/kg/injection, schedule: Q01DX Z (ip), vehicle: carboxymethylcellulose (CMC)) 102 % of control; (dose: 37.5 mg/kg/injection, schedule: Q04DX003 (ip), vehicle: Klucel (hydroxypropylcellulose) (HPC)) 97 % of control; (dose: 50.0 mg/kg/injection, schedule: Q01DX Z (ip), vehicle: carboxymethylcellulose (CMC)) 104 % of control; (dose: 75.0 mg/kg/injection, schedule: Q04DX003 (ip), vehicle: Klucel (hydroxypropylcellulose) (HPC)) 103 % of control; (dose: 150.0 mg/kg/injection, schedule: Q04DX003 (ip), vehicle: Klucel (hydroxypropylcellulose) (HPC)) 123 % of control. The T/C (dose: 300.0 mg/kg/injection, schedule: Q04DX003 (ip), vehicle: Klucel (hydroxypropylcellulose) (HPC)) was 151 % of control.
`O=C(O)CCNc1ccc(Cl)cc1[N+](=O)[O-]`: the T/C is 97 % of control under setting [1] and 120 % of control under setting [2].
For the molecule `O=C(N/N=C/c1ccco1)c1ccccc1`, the T/C was 94 % of control and 103 % of control (dose: 50.0 mg/kg/injection, schedule: Q01DX009 (ip), vehicle: saline with Tween-80); 106 % of control (dose: 100.0 mg/kg/injection, schedule: Q01DX001 (ip), vehicle: saline with Tween-80); 100 % of control and 103 % of control under setting [3]; 96 % of control (dose: 100.0 mg/kg/injection, schedule: Q04DX002 (ip), vehicle: saline with Tween-80); 98 % of control under setting [4]; 101 % of control (dose: 200.0 mg/kg/injection, schedule: Q01DX001 (ip), vehicle: saline with Tween-80). In addition, the T/C is, setting by setting: under setting [5], 103 % of control and 87 % of control; (dose: 200.0 mg/kg/injection, schedule: Q04DX002 (ip), vehicle: saline with Tween-80) 97 % of control; under setting [6], 105 % of control; (dose: 400.0 mg/kg/injection, schedule: Q01DX001 (ip), vehicle: saline with Tween-80) 114 % of control; (dose: 400.0 mg/kg/injection, schedule: Q04DX002 (ip), vehicle: saline with Tween-80) 110 % of control; under setting [7], 103 % of control.
As to `OCCC[P+](c1ccccc1)(c1ccccc1)c1ccccc1`, the T/C (dose: 25.0 mg/kg/injection, schedule: Q01DX009 (ip), vehicle: Klucel (hydroxypropylcellulose) (HPC)) was 96 % of control; the T/C (dose: 50.0 mg/kg/injection, schedule: Q01DX009 (ip), vehicle: Klucel (hydroxypropylcellulose) (HPC)) is 100 % of control; the T/C under setting [8] was 102 % of control.
Turning to `O=C(NCCCCc1ccccc1)c1ccc([N+](=O)[O-])s1`, the T/C reads like this: (dose: 50.0 mg/kg/injection, schedule: Q01DX005 (ip), vehicle: water) 94 % of control; (dose: 100.0 mg/kg/injection, schedule: Q01DX005 (ip), vehicle: water) 87 % of control; (dose: 200.0 mg/kg/injection, schedule: Q01DX005 (ip), vehicle: water) 94 % of control; (dose: 400.0 mg/kg/injection, schedule: Q01DX005 (ip), vehicle: water) 94 % of control.
For `CC(=O)SCCC(=O)NCNC(=O)CCSC(C)=O`, the T/C under setting [3] was 96 % of control; the T/C under setting [4] is 93 % of control; the T/C under setting [5] was 96 % of control; the T/C under setting [6] was 93 % of control; the T/C under setting [9] was 100 % of control; the T/C under setting [7] is 92 % of control.
As for `CC1CCCC(C)N1C(=O)Nc1cccc(F)c1` (configuration not stated), the T/C under setting [10] is 99 % of control, the T/C under setting [11] was 101 % of control and the T/C under setting [12] is 94 % of control.
For the molecule `O=C1C=C(C23CC4CC(CC(C4)C2)C3)Nc2ccccc2N1`, the T/C under setting [1] is 94 % of control, the T/C under setting [2] was 105 % of control and the T/C under setting [13] is 94 % of control.
Turning to `O=C(OCC#CC#CCOC(=O)c1ccccc1)c1ccccc1`, the T/C was 102 % of control under setting [10]; 94 % of control under setting [8]; 95 % of control under setting [11]; 96 % of control under setting [14]; 104 % of control under setting [12]; 89 % of control under setting [15].
For `OC(C/C(CNNc1ccccc1)=N/Nc1ccccc1)(C(F)(F)F)C(F)(F)F`, the T/C under setting [8] is 96 % of control, the T/C under setting [14] is 103 % of control and the T/C under setting [15] is 92 % of control.
`O=C(COc1ccc(F)cc1F)Oc1ccc([N+](=O)[O-])cc1`: the T/C is 101 % of control under setting [1], 104 % of control under setting [2] and 97 % of control under setting [13].
As to `CCCCCCCCCCC(C)c1ccc(S(=O)(=O)O)cc1` (configuration not stated), the T/C by setting is: (dose: 100.0 mg/kg/injection, schedule: Q01DX001 (ip), vehicle: saline sonified) 97 % of control; (dose: 200.0 mg/kg/injection, schedule: Q01DX001 (ip), vehicle: saline sonified) 107 % of control.
With `O=C(Nc1ccccc1C(F)(F)F)c1cccc(C(=O)Nc2ccccc2C(F)(F)F)c1`, the T/C is 86 % of control under setting [3], 87 % of control under setting [4] and 88 % of control under setting [9].
As for `c1nc(NCC2CC2)c2[nH]cnc2n1`, the T/C runs as follows: under setting [16], 97 % of control; under setting [17], 97 % of control.
As to `Nc1ccc(SCCCCCCSc2ccc(N)cc2)cc1`, the T/C (dose: 100.0 mg/kg/injection, schedule: Q04DX003 (ip), vehicle: other) is 94 % of control.
For `CC1CC(NC(=O)N(CCCl)N=O)CC(C)(C)C1` (configuration not stated), the T/C is, setting by setting: (dose: 8.0 mg/kg/injection, schedule: Q01DX001 (ip), vehicle: other) 96 % of control; (dose: 16.0 mg/kg/injection, schedule: Q01DX001 (ip), vehicle: other) 94 % of control; (dose: 31.0 mg/kg/injection, schedule: Q01DX001 (ip), vehicle: other) 105 % of control; (dose: 62.0 mg/kg/injection, schedule: Q01DX001 (ip), vehicle: other) 120 % of control; (dose: 250.0 mg/kg/injection, schedule: Q01DX001 (ip), vehicle: other) 157 % of control; (dose: 375.0 mg/kg/injection, schedule: Q01DX001 (ip), vehicle: other) 292 % of control. For the same molecule, the T/C was 308 % of control (dose: 500.0 mg/kg/injection, schedule: Q01DX001 (ip), vehicle: other) and 333 % of control (dose: 750.0 mg/kg/injection, schedule: Q01DX001 (ip), vehicle: other).
As to `O=C(COc1ccc(Cl)cc1Cl)NCCBr`, the T/C reads like this: under setting [10], 91 % of control; under setting [11], 92 % of control; under setting [12], 96 % of control.
Regarding `CN(C)CCC(=O)c1ccc2cc(Br)c3ccccc3c2c1`, the T/C by setting is: (dose: 13.3 mg/kg/injection, schedule: Q01DX Z (ip), vehicle: methylcellulose (MC)) 91 % of control; (dose: 30.0 mg/kg/injection, schedule: Q01DX Z (ip), vehicle: methylcellulose (MC)) 95 % of control.
On to `CCCCNC(=O)N(C)Cc1ccccc1`, for which the T/C by setting is: under setting [1], 105 % of control; under setting [2], 97 % of control; under setting [13], 112 % of control.
As for `CCOCCOC(=O)c1ccc(C(N)=NC)cc1`, the T/C by setting is: under setting [16], 91 % of control; under setting [17], 94 % of control; (dose: 400.0 mg/kg/injection, schedule: Q01DX001 (ip), vehicle: saline) 94 % of control.
For `CCOC(=O)c1ccc(N)cc1C(=O)OCC`, the T/C is, setting by setting: (dose: 100.0 mg/kg/injection, schedule: Q01DX001 (ip), vehicle: Klucel (hydroxypropylcellulose) (HPC)) 93 % of control; (dose: 200.0 mg/kg/injection, schedule: Q01DX001 (ip), vehicle: Klucel (hydroxypropylcellulose) (HPC)) 95 % of control; (dose: 400.0 mg/kg/injection, schedule: Q01DX001 (ip), vehicle: Klucel (hydroxypropylcellulose) (HPC)) 87 % of control.
